For 18 compounds, T/C results are on record in PubChem BioAssay AID248 (DTP/NCI, 2004).

In this experiment the test system is L1210 leukemia ip in BDF1 mice, survival T/C. Description: NCI In Vivo Anticancer Drug Screen. Data for tumor model L1210 Leukemia (intraperitoneal) in B6D2F1 (BDF1) mice. The settings on record: endpoint: mean survival time, higher = longer survival. The gist of the method:
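Tumor was transplanted into mice, which were then dosed with test compound or vehicle alone. Survival was recorded for each group, and the treated figure was expressed relative to the control figure.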

Setting [1] is: dose: 100.0 mg/kg/injection, schedule: Q01DX009 (ip), vehicle: Klucel (hydroxypropylcellulose) (HPC).
The mark [2] stands for this setting: dose: 400.0 mg/kg/injection, schedule: Q01DX009 (ip), vehicle: Klucel (hydroxypropylcellulose) (HPC).
Setting [3] is: dose: 200.0 mg/kg/injection, schedule: Q04DX003 (ip), vehicle: saline with Tween-80.
The mark [4] stands for this setting: dose: 400.0 mg/kg/injection, schedule: Q04DX003 (ip), vehicle: saline with Tween-80.
The mark [5] stands for this setting: dose: 100.0 mg/kg/injection, schedule: Q01DX009 (ip), vehicle: saline with Tween-80.
Where [6] appears, read: dose: 200.0 mg/kg/injection, schedule: Q01DX009 (ip), vehicle: saline with Tween-80.
Setting [7] is: dose: 100.0 mg/kg/injection, schedule: Q01DX001 (ip), vehicle: carboxymethylcellulose (CMC).
[8] abbreviates: dose: 200.0 mg/kg/injection, schedule: Q01DX001 (ip), vehicle: carboxymethylcellulose (CMC).
Where [9] appears, read: dose: 400.0 mg/kg/injection, schedule: Q01DX001 (ip), vehicle: carboxymethylcellulose (CMC).
Where [10] appears, read: dose: 100.0 mg/kg/injection, schedule: Q01DX001 (ip), vehicle: Klucel (hydroxypropylcellulose) (HPC).
Setting [11] is: dose: 200.0 mg/kg/injection, schedule: Q01DX001 (ip), vehicle: Klucel (hydroxypropylcellulose) (HPC).
Setting [12] is: dose: 400.0 mg/kg/injection, schedule: Q01DX001 (ip), vehicle: Klucel (hydroxypropylcellulose) (HPC).

Where “and” joins values, the source holds several entries; their conditions need not be identical. Equal values may be shown once. Inconclusive results and toxic doses are left out.

As to `O=C(Nc1ccc(C2=NCCN2)cc1)c1cccc(C(=O)Nc2ccc(C3=NCCN3)cc2)c1O`, the T/C reads like this: (dose: 2.5 mg/kg/injection, schedule: Q01DX Z (ip), vehicle: carboxymethylcellulose (CMC)) 120 % of control; (dose: 5.0 mg/kg/injection, schedule: Q01DX Z (ip), vehicle: carboxymethylcellulose (CMC)) 105 % of control; (dose: 7.5 mg/kg/injection, schedule: Q01DX Z (ip), vehicle: carboxymethylcellulose (CMC)) 109 % of control; (dose: 10.0 mg/kg/injection, schedule: Q01DX Z (ip), vehicle: carboxymethylcellulose (CMC)) 157 % of control; (dose: 15.0 mg/kg/injection, schedule: Q01DX Z (ip), vehicle: carboxymethylcellulose (CMC)) 259 % of control; (dose: 20.0 mg/kg/injection, schedule: Q01DX Z (ip), vehicle: carboxymethylcellulose (CMC)) 272 % of control. The T/C reads like this: (dose: 30.0 mg/kg/injection, schedule: Q01DX Z (ip), vehicle: carboxymethylcellulose (CMC)) 296 % of control; (dose: 31.0 mg/kg/injection, schedule: Q01DX Z (oral), vehicle: carboxymethylcellulose (CMC)) 106 % of control; (dose: 62.0 mg/kg/injection, schedule: Q01DX Z (oral), vehicle: carboxymethylcellulose (CMC)) 102 % of control; (dose: 125.0 mg/kg/injection, schedule: Q01DX Z (oral), vehicle: carboxymethylcellulose (CMC)) 113 % of control; (dose: 250.0 mg/kg/injection, schedule: Q01DX Z (oral), vehicle: carboxymethylcellulose (CMC)) 104 % of control.

Consider `COc1ccc(Cl)cc1NC(=O)Oc1ccc(F)cc1`, for which the T/C by setting is: under setting [1], 87 % of control; (dose: 200.0 mg/kg/injection, schedule: Q01DX009 (ip), vehicle: Klucel (hydroxypropylcellulose) (HPC)) 97 % of control; under setting [2], 87 % of control.

For the compound `CC1CC[N-]CC1.CC1CC[N-]CC1.CS(C)=O.[Cl][Rh]([Cl])[Cl]`, the T/C reads like this: (dose: 3.0 mg/kg/injection, schedule: Q01DX009 (ip), vehicle: saline with Tween-80) 98 % of control; (dose: 6.0 mg/kg/injection, schedule: Q01DX009 (ip), vehicle: saline with Tween-80) 106 % of control; (dose: 12.0 mg/kg/injection, schedule: Q01DX009 (ip), vehicle: saline with Tween-80) 109 % of control.

As for `CC(C)C1=CCC(OC(=O)c2ccc(NC(=S)Nc3ccccc3)cc2)CC1` (stereo not drawn), the T/C is 92 % of control (dose: 100.0 mg/kg/injection, schedule: Q04DX003 (ip), vehicle: saline with Tween-80); 96 % of control under setting [3]; 89 % of control under setting [4].

`BrCCCCOCBr`: the T/C by setting is: (dose: 50.0 mg/kg/injection, schedule: Q01DX009 (ip), vehicle: saline with Tween-80) 97 % of control; under setting [5], 101 % of control; under setting [6], 106 % of control.

Take `CCC(CC)(CC)C(OC(=O)c1ccccc1C(=O)O)c1ccccc1` (stereo not drawn): the T/C was 95 % of control (dose: 50.0 mg/kg/injection, schedule: Q01DX001 (ip), vehicle: saline); 95 % of control (dose: 100.0 mg/kg/injection, schedule: Q01DX001 (ip), vehicle: saline); 97 % of control (dose: 200.0 mg/kg/injection, schedule: Q01DX001 (ip), vehicle: saline); 88 % of control (dose: 400.0 mg/kg/injection, schedule: Q01DX001 (ip), vehicle: saline).

Consider `CC(C)(C)c1ccc(P(=O)(O)C(C)(C)C)cc1`, for which the T/C by setting is: (dose: 75.0 mg/kg/injection, schedule: Q01DX001 (ip), vehicle: saline) 96 % of control; (dose: 150.0 mg/kg/injection, schedule: Q01DX001 (ip), vehicle: saline) 102 % of control.

With `CC(C)c1ncc([N+](=O)[O-])n1C`, the T/C by setting is: (dose: 25.0 mg/kg/injection, schedule: Q04DX003 (ip), vehicle: Klucel (hydroxypropylcellulose) (HPC)) 97 % of control; (dose: 50.0 mg/kg/injection, schedule: Q04DX003 (ip), vehicle: Klucel (hydroxypropylcellulose) (HPC)) 95 % of control; under setting [7], 103 % of control; under setting [1], 102 % of control; (dose: 100.0 mg/kg/injection, schedule: Q04DX003 (ip), vehicle: Klucel (hydroxypropylcellulose) (HPC)) 97 % of control and 114 % of control; under setting [8], 101 % of control. Besides, the T/C was 104 % of control (dose: 200.0 mg/kg/injection, schedule: Q04DX003 (ip), vehicle: Klucel (hydroxypropylcellulose) (HPC)); 101 % of control under setting [9]; 91 % of control under setting [2]; 106 % of control (dose: 400.0 mg/kg/injection, schedule: Q04DX003 (ip), vehicle: Klucel (hydroxypropylcellulose) (HPC)).

With `CC1=COC2CCCCC2O1` (stereo not drawn) (tested in a mixture with another compound), the T/C was 92 % of control (dose: 50.0 mg/kg/injection, schedule: Q01DX009 (ip), vehicle: acetone); 95 % of control (dose: 100.0 mg/kg/injection, schedule: Q01DX009 (ip), vehicle: acetone); 103 % of control and 94 % of control (dose: 100.0 mg/kg/injection, schedule: Q04DX003 (ip), vehicle: acetone); 104 % of control and 96 % of control and 100 % of control (dose: 200.0 mg/kg/injection, schedule: Q04DX003 (ip), vehicle: acetone); 96 % of control and 89 % of control (dose: 400.0 mg/kg/injection, schedule: Q04DX003 (ip), vehicle: acetone).

Take `c1ccc2c(c1)ccc1cc3cc(NCCCCNc4ccc5nc6c(ccc7ccccc76)cc5c4)ccc3nc12`: the T/C (dose: 1.56 mg/kg/injection, schedule: Q01DX009 (ip), vehicle: saline with Tween-80) was 95 % of control; the T/C (dose: 3.13 mg/kg/injection, schedule: Q01DX009 (ip), vehicle: saline with Tween-80) is 92 % of control; the T/C (dose: 6.25 mg/kg/injection, schedule: Q01DX009 (ip), vehicle: saline with Tween-80) is 95 % of control and 111 % of control; the T/C (dose: 12.5 mg/kg/injection, schedule: Q01DX009 (ip), vehicle: saline with Tween-80) was 87 % of control.

Turning to `Oc1ccc2ccccc2c1CNc1ccccc1`, the T/C (dose: 100.0 mg/kg/injection, schedule: Q04DX003 (ip), vehicle: other) was 88 % of control and the T/C (dose: 200.0 mg/kg/injection, schedule: Q04DX003 (ip), vehicle: other) was 94 % of control.

Regarding `CCOC(=O)c1cnc(N)s1`, the T/C reads like this: under setting [10], 105 % of control; under setting [11], 98 % of control; under setting [12], 102 % of control.

In the case of `COc1ccccc1-n1c(O)c(N=Nc2ccccc2C)c(=O)n(-c2ccccc2)c1=S`, the T/C runs as follows: under setting [10], 110 % of control; under setting [11], 96 % of control; under setting [12], 96 % of control.

Consider `CC(C)CC(CC(C)C)NCCO`, for which the T/C (dose: 75.0 mg/kg/injection, schedule: Q01DX001 (ip), vehicle: acid diluted with saline) is 103 % of control.

Take `O=N[O-].O=N[O-].O=N[O-].O=N[O-].O=N[O-].O=N[O-].[Co+3].[Co].[NH2-].[NH2-].[NH2-].[NH2-].[NH2-].[NH2-]`: the T/C is, setting by setting: (dose: 25.0 mg/kg/injection, schedule: Q04DX002 (ip), vehicle: saline with Tween-80) 102 % of control; (dose: 50.0 mg/kg/injection, schedule: Q04DX002 (ip), vehicle: saline with Tween-80) 115 % of control.

For `CC1(C)CC(OP(=O)(CCl)OC2CC(C)(C)N(O)C(C)(C)C2)CC(C)(C)N1O`, the T/C (dose: 100.0 mg/kg/injection, schedule: Q04DX002 (ip), vehicle: water) was 97 % of control and the T/C (dose: 200.0 mg/kg/injection, schedule: Q04DX002 (ip), vehicle: water) is 97 % of control.

Turning to `CCCN(C)/N=N/c1[nH]ncc1C(N)=O`, the T/C reads like this: (dose: 66.0 mg/kg/injection, schedule: Q01DX009 (ip), vehicle: saline with Tween-80) 178 % of control; (dose: 100.0 mg/kg/injection, schedule: Q01DX001 (ip), vehicle: saline with Tween-80) 113 % of control; under setting [5], 188 % of control; (dose: 200.0 mg/kg/injection, schedule: Q01DX001 (ip), vehicle: saline with Tween-80) 115 % of control; under setting [6], 120 % of control; under setting [3], 116 % of control. Moreover, the T/C was 109 % of control (dose: 400.0 mg/kg/injection, schedule: Q01DX001 (ip), vehicle: saline with Tween-80) and 94 % of control under setting [4].

As to `CC(=O)CC(SCCSCCSC(CC(C)=O)c1ccccc1)c1ccccc1` (stereo not drawn), the T/C was 89 % of control (dose: 50.0 mg/kg/injection, schedule: Q01DX001 (ip), vehicle: carboxymethylcellulose (CMC)); 89 % of control under setting [7]; 97 % of control under setting [8]; 97 % of control under setting [9].
